Measured values as given in patent publication US20180169045A1, “AMINO ACID COMPOSITIONS AND METHODS FOR THE TREATMENT OF LIVER DISEASES” (AXCELLA HEALTH INC., priority 2016, published 2018).

Legend:
Type in all cases: cell-based
[1] = test system: Primary human hepatic stellate cells; assay: TGFβ1-induced Col1a1 gene expression in primary human hepatic stellate cells (RT-qPCR); conditions: for Col1a1 gene expression, in words: primary human hepatic stellate cells from three donors, 3 ng/mL TGFβ1, 24 h
Procedure: Primary human hepatic stellate cells were obtained from Samsara Sciences based on the following criteria for selecting donors: adult age (between 18 and 50 years), normal BMI (>18.5 and <25), and absence of confounding liver disease. Cells grown in Complete HSC Medium to ˜80% confluence in T75 or T150 flasks below passage 10 were seeded into sterile, collagen I coated, 96-well optical plastic microplates (ThermoScientific, 152036) at 6000 cells per well ([…]) and incubated overnight at 37° C., 5% CO2 in a humidified incubator in DMEM with 2% Fetal Bovine Serum and 1% Antibiotic-Antimycotic.
After the overnight incubation, plates were removed from the incubator and the medium was gently pipetted off and washed twice with 150 μL per well DPBS. The DPBS was removed and the pretreatment medium (±single amino acid dropout, 1×HMDB DMEM+1% Antibiotic-Antimycotic, 10 mM HEPES, ±supplemental amino acid dose; see experiment for medium composition) was applied to the cells at 150 μL per well. Plates were returned to the incubator for 10.5 hours.
After 10.5 hour pretreatment, the medium was removed from the cells, and the same pretreatment medium, now supplemented with 3 ng/mL TGFβ1, was applied. Each plate contained 3 ng/mL TGFβ1 in 1× human plasma amino acid (HMDB or PAA) concentration medium, 0 ng/mL in 1×HMDB, and 3 ng/mL TGFβ1+20 μM Silybin in 1×HMDB to serve as controls. Plates were then incubated for 24 hours at 37° C., 5% CO2.
After 24 hour stimulus, supernatant was removed and frozen at −80° C. in two separate aliquots. The cells were then washed with 125 μL per well Buffer FCW (FastLane Cell Multiplex NR Kit, Qiagen, 216713). The wash buffer was immediately removed and 50 μL of Cell Processing Mix (containing genomic DNA Wipeout buffer) was applied to lyse cells, incubating for 10 minutes at room temperature. RNA lysate was then transferred to 96-well qPCR plates, sealed, and gDNA was digested on thermal cycler at 75° C. for 5 minutes. RNA lysate was frozen at −80° C.
Each 20 μL one-step RT-qPCR reaction contained 4 μL of RNA lysate. Gene expression of Col1a1, Timp2, and Gapdh were multiplexed using the HEX, Cy5, and FAM fluorescent channels, respectively, with commercially available primer-probe mixes (the Human Col1a1 Primer-Probe Set, HEX; the Human Timp2 Primer-Probe Set, Cy5; and the Human Gapdh Primer-Probe Set, FAM from IDT). Gene expression was evaluated using the ΔΔCq method within each single amino acid dropout and supplementation by normalizing to its own 1×HMDB concentration.

[2] = test system: Primary human PMBC derived macrophages; assay: LPS-induced IL-6 secretion in primary human monocyte-derived macrophages (ELISA); parameters: IL-6 Measurements, Mean: unit not given here; conditions: for LPS-induced IL-6 secretion, in words: primary human monocyte-derived macrophages; for IL-6 Measurements, Mean: Donor 1, baseline subtracted values; for IL-6 Measurements Mean (baseline subtracted): LPS 0.15 ng/mL
Procedure: (§1) Isolation of Peripheral Blood Mononuclear Cell (PBMC) Unpurified buffy coats (Research Blood Components) were carefully poured into 50 mL centrifuge tubes and diluted with room temperature Dulbecco's Phosphate Buffered Saline (dPBS) with Calcium and Magnesium (Gibco). Diluted buffy coats were further divided into four total 50 mL centrifuge tubes at 20 mL per tube. Lymphocyte Separation Medium (Corning) was carefully pipetted to the bottom of each centrifuge tube. Mixtures were centrifuged at 850×g for 32 minutes at 20° C. with 0 deceleration and acceleration.
(§2) CD14+ cells were selected using EasySep™ Human CD14 Positive Selection Kit II ([…] Technologies). Cells were resuspended in cold EasySep™ Buffer ([…] Technologies) at 1×10^8 cells/mL. A total of 100 uL/mL EasySep™ Human CD14 Positive Selection Cocktail II was added to the cell suspension, mixed, and incubated at room temperature for 10 minutes. A total of 100 uL/mL RapidSpheres were added to the mixture and incubated at room temperature for 3 minutes after mixing, then RoboSep buffer was added to bring up the total volume to 10 mL. The mixture in a 15 mL tube was placed in magnet and incubated at room temperature for 3 minutes. Supernatant was discarded and 10 mL fresh EasySep™ buffer was added to 15 mL tube. The addition of RoboSep buffer, mixing, and discarding of supernatant was repeated two more times.
(§3) Negative and positive fractions were centrifuged at 490×g for 5 minutes at 20° C. with acceleration of 9, deceleration of 9, and resuspended in DMEM (Gibco) and 10% Heat Inactivated Fetal Bovine Serum (Atlanta Bio) and Penicillin/Streptomycin. Cells were counted and centrifuged again at 490×g for 5 minutes at 20° C. with acceleration of 9, deceleration of 9. After centrifugation, cell were resuspended in DMEM (Gibco) and 10% Heat Inactivated Fetal Bovine Serum (Atlanta Bio) and Penicillin/Streptomycin containing 500 U/mL […] and plated at 1-2×10^6 cells/mL on 10 cm tissue culture plates. Cells were kept in 37° C., 5% CO2 in between feedings/harvest.
(§4) Cells were fed every 3-4 days by removing media and unattached cells, centrifuging at 490×g for 5 minutes at 20 C with acceleration of 9, deceleration of 9, and resuspending in fresh DMEM (Gibco) and 10% Heat Inactivated Fetal Bovine Serum (Atlanta Bio) and Penicillin/Streptomycincontaining 500 U/mL GM-CSF. Resuspended cells were seeded back onto 10 cm tissue culture plates and incubated at 37° C., 5% CO2.
(§5) After complete cell attachment, culture supernatant was removed and cultures were washed 1× with 5 mL PBS. A total of 3 mL room temperature Cellstripper was added and cultures were incubated at 37° C., 5% CO2 for approximately 10 minutes until cells were rounded and beginning to detach. Cell scraper was used to completely detach cells from plate. Collected cell were spun down at 490 g for 5 min at room temperature and resuspended in 10% DMSO in Heat Inactivated Fetal Bovine Serum and immediately frozen in −80 C.
(§6) Primary human PMBC derived macrophages were seeded on day 0 at 3.0E4 cells per well in 96-well microplates (ThermoFisher) in Dulbecco's Modified Eagle Medium (DMEM) (Gibco) supplemented with penicillin-streptomycin (Hyclone) and 10% heat inactivated fetal bovine serum (HI-FBS) (Atlanta Bio) and incubated overnight at 37° C., 5% CO2. On day 1, cells were washed once with 150 uL per well DPBS (Gibco) and treated with 75 uL of: • a. Amino acid free DMEM (US Biologicals) containing a defined custom amino acid concentration based on the mean physiological concentrations in blood based on values published in the Human Metabolome Database (HMDB), with 6 mM glucose, 1 mM sodium pyruvate, 10 mM HEPES, 0.2% primocin (InVivoGen); or • b. The same medium described above with one amino acid at various concentrations including complete dropout. […]

[3] = test system: Primary human PMBC derived macrophages; assay: LPS-induced TNFa secretion in primary human monocyte-derived macrophages (ELISA); parameters: TNFa Measurements Mean (baseline subtracted): unit not given beside the values; conditions: for LPS-induced TNFa secretion, in words: primary human monocyte-derived macrophages
Procedure: as §1, §2, §3, §4, §5, §6

[4] = Donor 3, Conc. 749 μM (baseline)

## N=C(N)NCCC[C@H](N)C(=O)O [Arginine, L-Arginine]
[1]
  Col1a1 gene expression, in words: did not significantly change
[2]; Donor 1, 0.15 ng/mL LPS
  LPS-induced IL-6 secretion, in words: increased
[3]; Donor 1, Conc. 109 μM (baseline), LPS 0.15 ng/mL
  TNFa Measurements Mean (baseline subtracted): 0

## NC(=O)CC[C@H](N)C(=O)O [Glutamine, L-Glutamine]
[1]
  Col1a1 gene expression, in words: decreased Col1a1 gene expression in two of three donors
[2]; Conc. 3747 μM
  IL-6 Measurements, Mean: 291.5443
[2]; Conc. 11242 μM
  IL-6 Measurements, Mean: 397.1745
[2]; Conc. 22484 μM
  IL-6 Measurements, Mean: 440.1437
[2]; [4]
  IL-6 Measurements Mean (baseline subtracted): 3.79E−14
[2]; Donor 3, Conc. 3747 μM
  IL-6 Measurements Mean (baseline subtracted): 25.35
[2]; Donor 3, Conc. 11242 μM
  IL-6 Measurements Mean (baseline subtracted): 98.4903
[2]; Donor 3, Conc. 22484 μM
  IL-6 Measurements Mean (baseline subtracted): 108.5158
[2]; Donor 1, 0.15 ng/mL LPS
  LPS-induced IL-6 secretion, in words: increased
[2]; Donor 2, 0.15 ng/mL LPS
  LPS-induced IL-6 secretion, in words: increased
[2]; Donor 3, 0.15 ng/mL LPS
  LPS-induced IL-6 secretion, in words: significantly increased
[3]; [4]
  TNFa Measurements Mean (baseline subtracted): 0
[3]; Donor 2, 0.15 ng/mL LPS
  LPS-induced TNFa secretion, in words: increased
[3]; Donor 3, 0.15 ng/mL LPS
  LPS-induced TNFa secretion, in words: increased

## CC[C@H](C)[C@H](N)C(=O)O [Isoleucine, L-Isoleucine]
[1]
  Col1a1 gene expression, in words: did not significantly change
[2]; Conc. 1328 μM
  IL-6 Measurements, Mean: 25.98
[2]; Conc. 3320 μM
  IL-6 Measurements, Mean: −15.8843
[2]; Conc. 6639 μM
  IL-6 Measurements, Mean: −218.332
[2]; Donor 3, Conc. 66 μM (baseline)
  IL-6 Measurements Mean (baseline subtracted): −6.69
[2]; Donor 3, Conc. 1328 μM
  IL-6 Measurements Mean (baseline subtracted): −28.9897
[2]; Donor 3, Conc. 6639 μM
  IL-6 Measurements Mean (baseline subtracted): −16.3663
[3]; Donor 1, Conc. 66 μM (baseline), LPS 0.15 ng/mL
  TNFa Measurements Mean (baseline subtracted): 0
[3]; Donor 2, 0.15 ng/mL LPS
  LPS-induced TNFa secretion, in words: increased

## CC(C)C[C@H](N)C(=O)O [Leucine, L-Leucine]
[1]
  Col1a1 gene expression, in words: did not significantly change
[1]; second donor, normalized to Gapdh, Conc. 153 μM (baseline)
  Col1a1 Fold Expression Relative to Control, Mean: 1.01 fold
[2]; Conc. 3054 μM
  IL-6 Measurements, Mean: 244.9743
[2]; Conc. 7635 μM
  IL-6 Measurements, Mean: −69.9873
[2]; Conc. 15270 μM
  IL-6 Measurements, Mean: 84.46
[2]; Donor 2, 0.15 ng/mL LPS
  LPS-induced IL-6 secretion, in words: increased
[3]; Donor 2, Conc. 153 μM (baseline), LPS 0.15 ng/mL
  TNFa Measurements Mean (baseline subtracted): 0
[3]; Donor 2, 0.15 ng/mL LPS
  LPS-induced TNFa secretion, in words: increased

## CC(=O)N[C@@H](CS)C(=O)O [N-acetylcysteine]
[1]
  Col1a1 gene expression, in words: significantly reduced Col1a1 gene expression in all three donors
[2]; Conc. 5 X
  IL-6 Measurements, Mean: 308.1772
[2]; Conc. 10 X
  IL-6 Measurements, Mean: −121.142
[2]; Conc. 20 X
  IL-6 Measurements, Mean: −553.802
[2]; Conc. 40 X
  IL-6 Measurements, Mean: −914.194
[2]; Donor 2, Conc. 0 X (baseline)
  IL-6 Measurements Mean (baseline subtracted): −2.4E−15
[2]; Donor 2, Conc. 20 X
  IL-6 Measurements Mean (baseline subtracted): −24.9999
[2]; Donor 3, Conc. 0 X (baseline)
  IL-6 Measurements Mean (baseline subtracted): −9.5E−15
[2]; Donor 3, Conc. 5 X
  IL-6 Measurements Mean (baseline subtracted): −70.3269
[2]; Donor 3, Conc. 10 X
  IL-6 Measurements Mean (baseline subtracted): −103.586
[2]; Donor 3, Conc. 20 X
  IL-6 Measurements Mean (baseline subtracted): −122.656
[2]; Donor 3, Conc. 40 X
  IL-6 Measurements Mean (baseline subtracted): −140.851
[2]; Donor 1, 0.15 ng/mL LPS
  LPS-induced IL-6 secretion, in words: significantly reduced
[2]; Donor 2, 0.15 ng/mL LPS
  LPS-induced IL-6 secretion, in words: significantly reduced
[2]; Donor 3, 0.15 ng/mL LPS
  LPS-induced IL-6 secretion, in words: significantly reduced
[3]; Donor 1, Conc. 0 X (baseline), LPS 0.15 ng/mL
  TNFa Measurements Mean (baseline subtracted): 0
[3]; Donor 1, 0.15 ng/mL LPS
  LPS-induced TNFa secretion, in words: significantly reduced
[3]; Donor 2, 0.15 ng/mL LPS
  LPS-induced TNFa secretion, in words: significantly reduced
[3]; Donor 3, 0.15 ng/mL LPS
  LPS-induced TNFa secretion, in words: significantly reduced

## CC(C)[C@H](N)C(=O)O [Valine, L-Valine]
[1]
  Col1a1 gene expression, in words: did not significantly change
[2]; Conc. 4684 μM
  IL-6 Measurements, Mean: −85.9843
[2]; Conc. 11710 μM
  IL-6 Measurements, Mean: −97.25
[2]; Conc. 23420 μM
  IL-6 Measurements, Mean: −106.268
[2]; Donor 3, Conc. 234 μM (baseline)
  IL-6 Measurements Mean (baseline subtracted): 4.26E−14
[2]; Donor 3, Conc. 4684 μM
  IL-6 Measurements Mean (baseline subtracted): −30.0609
[2]; Donor 3, Conc. 11710 μM
  IL-6 Measurements Mean (baseline subtracted): −43.8022
[2]; Donor 3, Conc. 23420 μM
  IL-6 Measurements Mean (baseline subtracted): −29.2004
[3]; Donor 1, Conc. 234 μM (baseline), LPS 0.15 ng/mL
  TNFa Measurements Mean (baseline subtracted): 0
